Measurements taken from paper PMC11208559 (Scientific Reports, 2024).
≈ marks a conversion by molar mass, not a printed value. Structures can show the parent of a compound that is named as a salt.

Key:
CD-1 mice [1] = assay: 52 °C tail-flick assay, morphine anti-nociception after Hsp90 inhibitor treatment; assay type: in vivo
Experimental: (§1) Pre-injection tail-flick baselines were determined in a 52 °C tail-flick assay with a 10-s cutoff time (method also reported in Ref.[13]). […] No animals were excluded from these studies.

CD-1 mice [2] = assay: Post-surgical paw incision, mechanical allodynia (von Frey), morphine anti-nociception; assay type: in vivo
Experimental: Mechanical thresholds were determined prior to surgery using calibrated von Frey filaments (Ugo Basile, Varese, Italy) with the up-down method and four measurements after the first response per mouse as in Ref.[27] and our previously published work (e.g. Ref.[28]). The mice were housed in a homemade apparatus with Plexiglas walls and ceiling and a wire mesh floor (3-inch wide 4-inch long 3-inch high with 0.25-inch wire mesh). The surgery was then performed by anesthesia with ~ 2% isoflurane in standard air, preparation of the left plantar hind paw with iodine and 70% ethanol, and a 5-mm incision made through the skin and fascia with a no. 11 scalpel. The muscle was elevated with curved forceps leaving the origin and insertion intact, and the muscle was split lengthwise using the scalpel. The wound was then closed with 5–0 polyglycolic acid sutures. Mice were then injected with inhibitor or Vehicle control and left to recover for 24 h. Our intrathecal (i.t.) injection protocol is reported in Refs.[13],[29]; briefly, the injection was made in awake and restrained animals with a 10 μL Hamilton syringe and 30 g needle (5–7 μL volume) between the L5-L6 vertebrae at a 45° angle, with placement validated by tail twitch. Since the injection was made through skin with no incision or other surgical intervention, repeated injection protocols were performed the same way. The next day, the mechanical threshold was again determined as described above. […] . No animals were excluded from these studies.

CD-1 mice [3] = assay: HIV peripheral neuropathy (gp120), mechanical threshold, morphine anti-nociception; assay type: in vivo; settings: for A50 (morphine anti-nociceptive potency), HIV neuropathy: %MPE, 95% CI in parentheses
Experimental: Mechanical threshold baselines were measured prior to any treatment on the left hind paw using von Frey filaments. HIV peripheral neuropathy was induced by intrathecal injection of gp120 IIIb protein (SPEED BioSystems, Gaithersburg, MD, Cat# YCP1549, 15 ng/μl in 0.1 M PBS and 0.1% BSA, 7-μl volume) using our previously established protocol[13] on days 1, 3, and 5. On day 20 a second mechanical threshold baseline was measured on the left hind paw using von Frey filaments and then KU-32 or Vehicle was injected i.t with a 24-h treatment time. […] . No animals were excluded from these studies.

CD-1 mice [4] = assay: Morphine anti-nociceptive tolerance and tolerance rescue (tail flick); assay type: in vivo; settings: for A50 of morphine, Day 1 of tolerance regimen / A50 of morphine, Day 4 of tolerance regimen: twice daily 1–10 mg/kg morphine s.c., 95% CI in parentheses
Experimental: as §1

CD-1 mice [5] = assay: Conditioned place preference (morphine reward); settings: Vehicle i.t. over 4 days with 3.2–10 mg/kg morphine s.c.; 95% CI in parentheses
CD-1 mice [6] = assay: Opioid induced constipation (fecal production over 6 h)
physchem [7] = assay type: physicochemical
Experimental: Distribution coefficient (LogD) was determined by the method of Wilson et al.[30]. Briefly, 5 µL volumes of test compounds diluted in DMSO were added to a mixture of equal volumes of 50 mM phosphate buffer and 1-octanol. The compounds were assayed using a 50 nM concentration in order to limit compound precipitation and to ensure that the assay values were maintained within the dynamic range of the LC–MS/MS instrumentation. Samples were vortex mixed at 800 rpm for 24 h. Subsequent to centrifugation at 14,000 rpm for 30 min, 1 µL of each layer was analyzed by LC–MS/MS. LogD was calculated using the peak areas obtained from each layer.
LC − MS/MS analysis was conducted using an Agilent (Santa Clara, CA) 6460 triple quadrupole mass spectrometer coupled with an Agilent liquid chromatography (LC) system. The LC system consists of a binary pump, degasser, column heater, and autosampler. Chromatographic separation was performed on a Waters Atlantis T3 3 µm 3.0 × 50 mm analytical column using a ballistic gradient of mobile phase consisting of 0.1% formic acid in water (A) and 0.1% formic acid in acetonitrile (B) at a flow rate of 0.75 mL/min. The mobile phase was heated to a temperature of 45 °C.

in vitro [8] = assay type: in vitro ADME, CD-1 mice; settings: male, CD-1, mouse, microsomes
Experimental: (§2) Metabolic stability of lead compounds was assessed in vitro by the method of Di et al.[32]. Briefly, mouse liver microsomes (Corning Life Sciences, Woburn, MA) were isolated from CD-1 mice (male mice, 8 − 10 weeks of age). Assays were conducted using 0.123 mg/mL protein concentration (total protein concentration in the microsomal solution) and 1.0 μM drug concentration under incubation conditions of 37 °C. Metabolic stability was determined following 0, 5, 15, 30, and 60 min of incubation time. The samples were analyzed by reversed phase LC using a triple quadrupole mass spectrometer. Compound specific transitions of parent ion to product ion were monitored and percent remaining calculated based on peak area of 5 − 60 min time points (relative to time zero). Half-life calculations were determined using the formula t½ = − ln(2)/k, where k (min^−1) is the turnover rate constant (the slope) estimated from a log − linear regression of the percentage compound remaining versus time.
LC − MS/MS analysis was conducted using an Agilent (Santa Clara, CA) 6460 triple quadrupole mass spectrometer coupled with an Agilent liquid chromatography (LC) system. The LC system consists of a binary pump, degasser, column heater, and autosampler. […]

in vitro [9] = assay type: in vitro ADME; settings: male, human, microsomes
Experimental: as §2
Metabolic stability of the compounds in human liver microsomes was determined by the method described above using pooled human liver microsome preparations from 20 male donors (Corning Life Sciences, Woburn, MA). Assays were conducted as described above and the in vitro half-life of the compounds was calculated. […]

human mu opioid receptor = biological target: T1, human mu opioid receptor (Homo sapiens, UniProt P35372); assay type: binding; settings: up to a 10 μM concentration
T1 construct: membrane protein

[10] = biological target: T2, human delta opioid receptor (Homo sapiens, UniProt P41143); assay: Competition radioligand binding vs 3H-diprenorphine, delta opioid receptor; settings: up to a 10 μM concentration
T2 construct: membrane protein

[11] = biological target: T3, human kappa opioid receptor (Homo sapiens, UniProt P41145); assay: Competition radioligand binding vs 3H-diprenorphine, kappa opioid receptor; settings: up to a 10 μM concentration
T3 construct: membrane protein

CD-1 mice [12] = settings: mouse, in vivo
[13] = 1 and 10 mg/kg i.v.
in vivo = settings: CD-1, mouse, iv
physchem [14] = settings: pH 6.8, aqueous buffer, thermodynamic from solid
[15] = 0.01 nmol KU-32 i.t. vs Vehicle
[16] = daily 0.01 nmol KU-32 i.t., tail flick

CO[C@@H]1[C@@H](O)[C@@H](O)[C@H](Oc2ccc3cc(NC(C)=O)c(=O)oc3c2C)OC1(C)C [KU-32]
fold increase in morphine potency, tail flick (CD-1 mice [1]; [15]): 1.9 fold
A50 (morphine anti-nociceptive potency), tail flick (CD-1 mice [1]; 0.01 nmol KU-32 i.t., 24 h, then 1–10 mg/kg morphine s.c., %MPE, 95% CI in parentheses): 1.6 (1.3–2.0) mg/kg
fold increase in morphine potency, paw incision (CD-1 mice [2]; [15]): 2.8 fold
A50 (morphine anti-nociceptive potency), paw incision (CD-1 mice [2]; 0.01 nmol KU-32 i.t., 24 h, then 0.32–5.6 mg/kg morphine s.c., %MPE, 95% CI in parentheses): 0.85 (0.64–1.1) mg/kg
A50 (morphine anti-nociceptive potency), HIV neuropathy (CD-1 mice [3]; 0.01 nmol KU-32 i.t. on day 20, 24 h, then 0.32–10 mg/kg morphine s.c.): 1.2 (0.87–1.5) mg/kg
fold increase in morphine potency, HIV neuropathy (CD-1 mice [3]; [15]): 3.5 fold
baseline nociception (tail flick baseline responses) (CD-1 mice [4]; 0.01 nmol i.t. daily, 7-day regimen): not altering baseline nociception
rescue of established morphine tolerance (CD-1 mice [4]; 3 days twice daily 10 mg/kg morphine s.c., 0.01 nmol i.t. on day 3, 24 h, 10 mg/kg morphine on day 4): full anti-nociceptive response to morphine, comparable to their day 1 response
A50 of morphine, Day 1 of tolerance regimen (CD-1 mice [4]; [16]): 1.9 (1.3–2.5) mg/kg
A50 of morphine, Day 4 of tolerance regimen (CD-1 mice [4]; [16]): 5.5 (3.5–12) mg/kg

CN1CC[C@]23c4c5ccc(O)c4O[C@H]2[C@@H](O)C=C[C@H]3[C@H]1C5 [morphine, Morphine sulfate pentahydrate, reference compound]
A50 (morphine anti-nociceptive potency), tail flick (CD-1 mice [1]; Vehicle i.t., 24 h, then 1–10 mg/kg morphine s.c., %MPE, 95% CI in parentheses): 3.0 (2.5–3.7) mg/kg
A50 (morphine anti-nociceptive potency), tail flick (CD-1 mice [1]; Vehicle i.v. (control of KUNB106 experiment, Fig. 9E), 24 h, then 1–5.6 mg/kg morphine s.c.): 5.6 (4.4–∞) mg/kg
A50 (morphine anti-nociceptive potency), tail flick (CD-1 mice [1]; Vehicle i.v. (control of KUNG65 experiment, Fig. 8F), 24 h, then 1–5.6 mg/kg morphine s.c.): 3.6 (2.9–4.6) mg/kg
A50 (morphine anti-nociceptive potency), paw incision (CD-1 mice [2]; Vehicle i.t., 24 h, then morphine s.c., %MPE, 95% CI in parentheses): 2.4 (2.0–2.8) mg/kg
A50 (morphine anti-nociceptive potency), paw incision (CD-1 mice [2]; Vehicle i.v. (control of KUNB106 experiment, Fig. S7B), then 1–3.2 mg/kg morphine s.c.): 2.5 (2.0–∞) mg/kg
A50 (morphine anti-nociceptive potency), paw incision (CD-1 mice [2]; Vehicle i.v. (control of KUNG65 experiment, Fig. S6B), then 1–3.2 mg/kg morphine s.c.): 2.0 (1.4–3.0) mg/kg
A50 (morphine anti-nociceptive potency), HIV neuropathy (CD-1 mice [3]; Vehicle i.t. on day 20, 24 h, then morphine s.c.): 4.2 (3.7–4.8) mg/kg
A50 of morphine, Day 1 of tolerance regimen (CD-1 mice [4]; daily Vehicle i.t., tail flick): 5.2 (3.9–7.5) mg/kg
A50 of morphine, Day 4 of tolerance regimen (CD-1 mice [4]; daily Vehicle i.t., tail flick): 110 (30–6300) mg/kg
A50 (morphine reward potency, CPP % Difference Score) (CD-1 mice [5]): 5.1 (2.7–7.7) mg/kg
constipation compared to saline-injected controls (CD-1 mice [6]; 1 mg/kg morphine s.c.): ~ 40%
constipation compared to saline-injected controls (plateau) (CD-1 mice [6]; 3.2–10 mg/kg morphine s.c.): ~ 70%
A50 (morphine constipation potency) (CD-1 mice [6]; Vehicle i.t., 24 h, then morphine s.c., 6-h AUC, %MPE, 95% CI in parentheses): 0.67 (0.32–0.94) mg/kg

COC(=O)c1c(O)cc(O)c(Cl)c1CCc1ccccc1Cc1ccc(F)cc1 [KUNG65]
naloxone reversibility of inhibitor-enhanced morphine pain relief (CD-1 mice [1]; 1 mg/kg i.v., 24 h, 2 mg/kg naloxone i.p. 10 min, 3.2 mg/kg morphine s.c., tail flick): fully naloxone-reversible
effect on morphine tail flick anti-nociception 48 h after treatment (CD-1 mice [1]; 1 mg/kg i.v., 48 h, then 3.2 mg/kg morphine s.c.): no effect
A50 (morphine anti-nociceptive potency), tail flick, systemic inhibitor (CD-1 mice [1]; 1 mg/kg inhibitor i.v., 24 h, then 1–5.6 mg/kg morphine s.c., peak %MPE, 95% CI in parentheses): 1.9 (1.4–2.3) mg/kg
effect of higher 10 mg/kg dose on morphine pain relief (tail flick) (CD-1 mice [1]; 10 mg/kg i.v. vs 1 mg/kg i.v., 24 h, then 3.2 mg/kg morphine s.c.): elevated morphine pain relief, it did so less than a 1 mg/kg dose
effect of spinal cord Grp94 CRISPR knockdown on benefit of systemic inhibitor (CD-1 mice [1]; Grp94 CRISPR i.t., 1 mg/kg i.v. on day 9, 24 h, 3.2 mg/kg morphine s.c., tail flick): abolished the benefit
A50 (morphine anti-nociceptive potency), paw incision, systemic inhibitor (CD-1 mice [2]; 1 mg/kg inhibitor i.v., 24 h, then 1–3.2 mg/kg morphine s.c., peak %MPE, 95% CI in parentheses): 0.9 (0.5–1.2) mg/kg
rescue of established morphine tolerance, systemic inhibitor (CD-1 mice [4]; 3 days twice daily 10 mg/kg morphine s.c., 1 mg/kg i.v. on day 3, 24 h, 10 mg/kg morphine s.c., tail flick): rescued established tolerance
logD at 24 h (physchem [7]): 3.3
half-life at 1 µM (in vitro [8]): 32 min
half-life at 1 µM (in vitro [9]): 144 min
binding to mu opioid receptor (competition vs 3H-diprenorphine) (human mu opioid receptor): no binding
binding to delta opioid receptor (competition vs 3H-diprenorphine) [10]: no binding
binding to kappa opioid receptor (competition vs 3H-diprenorphine) [11]: no binding
effect on respiratory activity before and after morphine (CD-1 mice [12]): no effect on respiration before or after morphine injection
exposure in the spinal cord [13]: very low exposure
AUC(0-inf) (in vivo; 1 mg/kg): 0.245 µM·h
Cmax (in vivo; 1 mg/kg): 418 nM
Tmax (in vivo; 1 mg/kg): 4.98 min
half-life (in vivo; 1 mg/kg): 36 min
AUC(0-inf) (in vivo; 10 mg/kg): 0.46 µM·h
Cmax (in vivo; 10 mg/kg): 1070 nM
Tmax (in vivo; 10 mg/kg): 4.98 min
half-life (in vivo; 10 mg/kg): 38.4 min
solubility at 24 h (physchem [14]): 0.074 µM (≈ 0.0307 µg/mL)
